Data: PubChem BioAssay (NCI)
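Following 48 hours of exposure in 96-well plates, responses at five concentrations were used to interpolate endpoints linearly. Abbreviation: GI50, concentration required for 50% inhibition of growth. TGI marks complete inhibition of growth.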 Calls of active or inactive are those of the source. Rule as the data show it: active = GI50 below about 0.43 µM; inactive = the rest.

How the values were obtained:
Assay in all cases: NCI tumour cell line growth inhibition, 48 h
DMS 273 small cell lung = tested on: DMS 273 small cell lung
HOP-18 NSCLC = tested on: HOP-18 NSCLC
SNB-78 CNS = tested on: SNB-78 CNS
M19-MEL melanoma = tested on: M19-MEL melanoma
DMS 114 small cell lung = tested on: DMS 114 small cell lung
LXFL 529 NSCLC = tested on: LXFL 529 NSCLC
KM20L2 colon = tested on: KM20L2 colon
XF 498 CNS = tested on: XF 498 CNS
RXF-631 renal = tested on: RXF-631 renal
SN12K1 renal = tested on: SN12K1 renal
P388/ADR leukemia = tested on: P388/ADR leukemia

COC(CC1(OC)OC(=O)C=C1N)OC (configuration not stated)
TGI (DMS 273 small cell lung): > 100 µM | TGI (HOP-18 NSCLC): > 100 µM | TGI (SNB-78 CNS): > 100 µM | TGI (M19-MEL melanoma): > 100 µM | TGI (DMS 114 small cell lung): > 100 µM | TGI (LXFL 529 NSCLC): > 100 µM

CC1CC(c2ccc(Cl)c(Cl)c2)=Nc2ccccc2S1 (configuration not stated)
TGI (DMS 273 small cell lung): > 100 µM | TGI (HOP-18 NSCLC): > 100 µM | TGI (KM20L2 colon): > 100 µM | TGI (SNB-78 CNS): > 100 µM | TGI (M19-MEL melanoma): > 100 µM | TGI (XF 498 CNS): > 100 µM | TGI (DMS 114 small cell lung): > 100 µM | TGI (LXFL 529 NSCLC): > 100 µM

NC(=O)c1cc([N+](=O)[O-])cc([N+](=O)[O-])c1
TGI (DMS 273 small cell lung): > 100 µM | TGI (KM20L2 colon): > 100 µM | TGI (M19-MEL melanoma): 46.8 µM | TGI (RXF-631 renal): > 100 µM | TGI (DMS 114 small cell lung): > 100 µM | TGI (LXFL 529 NSCLC): > 100 µM

COC(=O)C1=C(\O)C[C@@]2(C)CC[C@@H](C(=O)OC)C2C/C=C\1C(=O)OC (some centres not stated)
TGI (DMS 273 small cell lung): > 100 µM | TGI (HOP-18 NSCLC): > 100 µM | TGI (KM20L2 colon): > 100 µM | TGI (SNB-78 CNS): > 100 µM | TGI (M19-MEL melanoma): > 100 µM | TGI (RXF-631 renal): > 100 µM | TGI (DMS 114 small cell lung): > 100 µM | TGI (LXFL 529 NSCLC): > 100 µM

O=C(/C=C/c1ccc(O)cc1)c1cc(Cl)ccc1O
TGI (HOP-18 NSCLC): > 100 µM | TGI (KM20L2 colon): > 100 µM | TGI (SNB-78 CNS): > 100 µM | TGI (M19-MEL melanoma): > 100 µM | TGI (XF 498 CNS): 85 µM | TGI (DMS 114 small cell lung): 67.4 µM | TGI (LXFL 529 NSCLC): > 100 µM

c1ccc2c(c1)N=C(c1ccc3ccccc3c1)CC(c1cccc3ccccc13)S2 (configuration not stated)
TGI (DMS 273 small cell lung): > 100 µM | TGI (HOP-18 NSCLC): > 100 µM | TGI (KM20L2 colon): > 100 µM | TGI (M19-MEL melanoma): > 100 µM | TGI (XF 498 CNS): > 100 µM | TGI (RXF-631 renal): > 100 µM | TGI (DMS 114 small cell lung): > 100 µM | TGI (LXFL 529 NSCLC): > 100 µM

N#CC1C(=O)NC(=O)C1=O (configuration not stated)
TGI (DMS 273 small cell lung): > 100 µM | TGI (HOP-18 NSCLC): > 100 µM | TGI (KM20L2 colon): > 100 µM | TGI (SNB-78 CNS): > 100 µM | TGI (M19-MEL melanoma): > 100 µM | TGI (XF 498 CNS): > 100 µM | TGI (RXF-631 renal): > 100 µM | TGI (DMS 114 small cell lung): > 100 µM | TGI (LXFL 529 NSCLC): > 100 µM

O=C1C(Br)=CC2(C=C1Br)CCNc1c(O)c3c4c(c12)=NCCC=4C=N3
TGI (SN12K1 renal): 0.426 µM | TGI (DMS 273 small cell lung): 0.427 µM | TGI (HOP-18 NSCLC): 3.4 µM | TGI (KM20L2 colon): 0.413 µM | TGI (P388/ADR leukemia): 0.0155 µM | TGI (SNB-78 CNS): 0.656 µM | TGI (M19-MEL melanoma): 0.0656 µM | TGI (XF 498 CNS): 0.399 µM | TGI (DMS 114 small cell lung): 0.101 µM

CCCCCCCCCCCC(=O)OC(COC(N)=O)COc1ccc(Cl)cc1 (configuration not stated)
TGI (DMS 273 small cell lung): 40.9 µM | TGI (HOP-18 NSCLC): 95.7 µM | TGI (KM20L2 colon): > 100 µM | TGI (SNB-78 CNS): 84.8 µM | TGI (M19-MEL melanoma): 32.9 µM | TGI (XF 498 CNS): 45.8 µM | TGI (RXF-631 renal): 67.7 µM | TGI (DMS 114 small cell lung): 33.1 µM | TGI (LXFL 529 NSCLC): 45.2 µM

COC(=O)NC(=O)c1cn(C2CCCCC2)c(=O)[nH]c1=O
TGI (DMS 273 small cell lung): > 100 µM | TGI (HOP-18 NSCLC): > 100 µM | TGI (KM20L2 colon): > 100 µM | TGI (SNB-78 CNS): > 100 µM | TGI (M19-MEL melanoma): > 100 µM | TGI (DMS 114 small cell lung): > 100 µM | TGI (LXFL 529 NSCLC): > 100 µM

CC1(C)CC(N2CCN(C3CC(C)(C)NC(C)(C)C3)CC2)CC(C)(C)N1
TGI (DMS 273 small cell lung): > 100 µM | TGI (HOP-18 NSCLC): > 100 µM | TGI (KM20L2 colon): > 100 µM | TGI (SNB-78 CNS): > 100 µM | TGI (XF 498 CNS): > 100 µM | TGI (RXF-631 renal): > 100 µM | TGI (DMS 114 small cell lung): > 100 µM | TGI (LXFL 529 NSCLC): > 100 µM

CCc1ccc([O-])c(C=NCCCN(C)CCCN=Cc2cc(C)ccc2[O-])c1.[Co+3].[N-]=[N+]=[N-]
GI50 (SN12K1 renal): 21.7 µg/mL | TGI (SN12K1 renal): 54.8 µg/mL | GI50 (DMS 273 small cell lung): 34.7 µg/mL | TGI (DMS 273 small cell lung): > 150 µg/mL | outcome (HOP-18 NSCLC): inactive | outcome (KM20L2 colon): inactive | GI50 (P388/ADR leukemia): 82.9 µg/mL | TGI (P388/ADR leukemia): > 150 µg/mL | GI50 (SNB-78 CNS): > 150 µg/mL | TGI (SNB-78 CNS): > 150 µg/mL | GI50 (M19-MEL melanoma): > 150 µg/mL | TGI (M19-MEL melanoma): > 150 µg/mL | outcome (XF 498 CNS): inactive | GI50 (DMS 114 small cell lung): 136 µg/mL | TGI (DMS 114 small cell lung): > 150 µg/mL

NCC1(N2CCOCC2)C2CCCC21CNc1ccccc1 (configuration not stated)
TGI (DMS 273 small cell lung): > 100 µM | TGI (HOP-18 NSCLC): > 100 µM | TGI (SNB-78 CNS): > 100 µM | TGI (M19-MEL melanoma): > 100 µM | TGI (XF 498 CNS): > 100 µM | TGI (RXF-631 renal): > 100 µM | TGI (DMS 114 small cell lung): > 100 µM | TGI (LXFL 529 NSCLC): > 100 µM

O=C1c2ccccc2C(=O)c2c1ccc1c2N=C(c2ccc(Br)cc2)CC(c2cccc3ccccc23)N1 (configuration not stated)
TGI (DMS 273 small cell lung): > 100 µM | TGI (HOP-18 NSCLC): > 100 µM | TGI (KM20L2 colon): > 100 µM | TGI (SNB-78 CNS): > 100 µM | TGI (XF 498 CNS): > 100 µM | TGI (RXF-631 renal): > 100 µM | TGI (DMS 114 small cell lung): > 100 µM | TGI (LXFL 529 NSCLC): > 100 µM

NC(=O)c1ncn(Cc2ccccc2)c1CNC(N)=S
TGI (DMS 273 small cell lung): > 100 µM | TGI (HOP-18 NSCLC): > 100 µM | TGI (SNB-78 CNS): > 100 µM | TGI (M19-MEL melanoma): > 100 µM | TGI (XF 498 CNS): > 100 µM | TGI (RXF-631 renal): > 100 µM | TGI (DMS 114 small cell lung): > 100 µM | TGI (LXFL 529 NSCLC): > 100 µM

O=C(NC1C(=O)NNC1c1ccccc1Cl)c1ccccc1 (configuration not stated)
TGI (DMS 273 small cell lung): > 100 µM | TGI (HOP-18 NSCLC): > 100 µM | TGI (KM20L2 colon): > 100 µM | TGI (M19-MEL melanoma): > 100 µM | TGI (XF 498 CNS): > 100 µM | TGI (DMS 114 small cell lung): > 100 µM | TGI (LXFL 529 NSCLC): > 100 µM

ClCCCCOC1CCCCO1 (configuration not stated)
TGI (DMS 273 small cell lung): > 100 µM | TGI (HOP-18 NSCLC): > 100 µM | TGI (KM20L2 colon): > 100 µM | TGI (SNB-78 CNS): > 100 µM | TGI (M19-MEL melanoma): > 100 µM | TGI (XF 498 CNS): > 100 µM | TGI (DMS 114 small cell lung): > 100 µM | TGI (LXFL 529 NSCLC): > 100 µM

Cn1cnc([N+](=O)[O-])c1Sc1nc2ccc([N+](=O)[O-])cc2[nH]1
TGI (DMS 273 small cell lung): 4.68 µM | TGI (HOP-18 NSCLC): > 100 µM | TGI (KM20L2 colon): > 100 µM | TGI (SNB-78 CNS): 81 µM | TGI (M19-MEL melanoma): 44.5 µM | TGI (XF 498 CNS): 28.9 µM | TGI (LXFL 529 NSCLC): 26.9 µM

Cc1ccc(NC(=O)C(=O)CC(=O)c2ccccc2)cc1C
TGI (DMS 273 small cell lung): > 100 µM | TGI (HOP-18 NSCLC): > 100 µM | TGI (KM20L2 colon): > 100 µM | TGI (SNB-78 CNS): > 100 µM | TGI (M19-MEL melanoma): > 100 µM | TGI (XF 498 CNS): > 100 µM | TGI (DMS 114 small cell lung): > 100 µM | TGI (LXFL 529 NSCLC): > 100 µM

Nc1ccc(C(=O)Nc2ccccc2N)cc1
TGI (DMS 273 small cell lung): > 100 µM | TGI (HOP-18 NSCLC): > 100 µM | TGI (SNB-78 CNS): > 100 µM | TGI (M19-MEL melanoma): > 100 µM | TGI (XF 498 CNS): > 100 µM | TGI (RXF-631 renal): > 100 µM | TGI (DMS 114 small cell lung): > 100 µM | TGI (LXFL 529 NSCLC): > 100 µM
